ChEMBL document CHEMBL3885881, “DrugMatrix”

Organism: Rattus norvegicus
Assay type: toxicity, organism-based, Sprague-Dawley
Settings: in vivo, po, route oral GAVAGE, […]; for ABSOLUTE EOSINOPHIL / ABSOLUTE LYMPHOCYTE / ABSOLUTE MONOCYTE / ABSOLUTE SEGMENTED NEUTROPHIL / BASOPHIL / EOSINOPHIL / ERYTHROCYTE COUNT / HEMATOCRIT / HEMOGLOBIN / LEUKOCYTE COUNT / LYMPHOCYTE / MEAN CORPUSCULAR HEMOGLOBIN / MEAN CORPUSCULAR HEMOGLOBIN CONCENTRATION / MEAN CORPUSCULAR VOLUME / MONOCYTE / NEUTROPHIL / NUCLEATED RED BLOOD CELLS / PLATELET COUNT: tissue Blood; for ALANINE AMINOTRANSFERASE / ALKALINE PHOSPHATASE / ASPARTATE AMINOTRANSFERASE / BLOOD UREA NITROGEN / CARBON DIOXIDE / CHLORIDE / CHOLESTEROL / CREATINE PHOSPHOKINASE / CREATININE / GLUCOSE / LACTATE DEHYDROGENASE / LIPASE / PHOSPHORUS / POTASSIUM / SODIUM / TOTAL BILIRUBIN / TOTAL PROTEIN / URIC ACID: tissue Plasma
[1] = 100 mg/kg, 24 h, dose level Low, time 1 day
[2] = 700 mg/kg, 6 h, dose level High, time 0.25 day
[3] = 700 mg/kg, 24 h, dose level High, time 1 day

Description: DrugMatrix - Regimen: Single

SMILES: Cc1ccc(C)c(OCCCC(C)(C)C(=O)O)c1 [GEMFIBROZIL]
- ABSOLUTE EOSINOPHIL [1]: 126.33 CELLS/uL
- ABSOLUTE LYMPHOCYTE [1]: 13618.33 CELLS/uL
- ABSOLUTE MONOCYTE [1]: 235.33 CELLS/uL
- ABSOLUTE SEGMENTED NEUTROPHIL [1]: 1320 CELLS/uL
- BASOPHIL [1]: 0%
- EOSINOPHIL [1]: 0.83%
- ERYTHROCYTE COUNT [1]: 5.54 x10E6/uL
- HEMATOCRIT [1]: 35.43%
- HEMOGLOBIN [1]: 13.82 G/DL
- LEUKOCYTE COUNT [1]: 15.3 x10E3/uL
- LYMPHOCYTE [1]: 89.17%
- MEAN CORPUSCULAR HEMOGLOBIN [1]: 25.02 pg
- MEAN CORPUSCULAR HEMOGLOBIN CONCENTRATION [1]: 39 G/DL
- MEAN CORPUSCULAR VOLUME [1]: 64.12 fL
- MONOCYTE [1]: 1.5%
- NEUTROPHIL [1]: 8.5%
- NUCLEATED RED BLOOD CELLS [1]: 0 /100WBC
- PLATELET COUNT [1]: 879.83 x10E3/uL
- ALANINE AMINOTRANSFERASE [1]: 82.17 u/L
- ALKALINE PHOSPHATASE [1]: 348.5 u/L
- ASPARTATE AMINOTRANSFERASE [1]: 88.67 u/L
- BLOOD UREA NITROGEN [1]: 11.17 mg/dL
- CARBON DIOXIDE [1]: 30.17 mmol/L
- CHLORIDE [1]: 101.33 MEQ/L
- CHOLESTEROL [1]: 57.17 mg/dL
- CREATINE PHOSPHOKINASE [1]: 237 u/L
- CREATININE [1]: 0.18 mg/dL
- GLUCOSE [1]: 138.33 mg/dL
- LACTATE DEHYDROGENASE [1]: 130.5 u/L
- LIPASE [1]: 8.67 u/L
- PHOSPHORUS [1]: 9.87 mg/dL
- POTASSIUM [1]: 6.21 MEQ/L
- SODIUM [1]: 146.35 MEQ/L
- TOTAL BILIRUBIN [1]: 0.15 mg/dL
- TOTAL PROTEIN [1]: 5.83 G/DL
- URIC ACID [1]: 1.02 mg/dL
- ABSOLUTE EOSINOPHIL [2]: 0 CELLS/uL
- ABSOLUTE LYMPHOCYTE [2]: 11512.83 CELLS/uL
- ABSOLUTE MONOCYTE [2]: 281.33 CELLS/uL
- ABSOLUTE SEGMENTED NEUTROPHIL [2]: 1289.17 CELLS/uL
- BASOPHIL [2]: 0%
- EOSINOPHIL [2]: 0%
- ERYTHROCYTE COUNT [2]: 5.72 x10E6/uL
- HEMATOCRIT [2]: 36.68%
- HEMOGLOBIN [2]: 14.32 G/DL
- LEUKOCYTE COUNT [2]: 13.08 x10E3/uL
- LYMPHOCYTE [2]: 87.5%
- MEAN CORPUSCULAR HEMOGLOBIN [2]: 25.02 pg
- MEAN CORPUSCULAR HEMOGLOBIN CONCENTRATION [2]: 39.02 G/DL
- MEAN CORPUSCULAR VOLUME [2]: 64.17 fL
- MONOCYTE [2]: 2.33%
- NEUTROPHIL [2]: 10.17%
- NUCLEATED RED BLOOD CELLS [2]: 0 /100WBC
- PLATELET COUNT [2]: 1058.5 x10E3/uL
- ALANINE AMINOTRANSFERASE [2]: 68.17 u/L
- ALKALINE PHOSPHATASE [2]: 373.33 u/L
- ASPARTATE AMINOTRANSFERASE [2]: 85.5 u/L
- BLOOD UREA NITROGEN [2]: 9.83 mg/dL
- CARBON DIOXIDE [2]: 30.5 mmol/L
- CHLORIDE [2]: 95.17 MEQ/L
- CHOLESTEROL [2]: 81.83 mg/dL
- CREATINE PHOSPHOKINASE [2]: 224.83 u/L
- CREATININE [2]: 0.16 mg/dL
- GLUCOSE [2]: 138.17 mg/dL
- LACTATE DEHYDROGENASE [2]: 127.17 u/L
- LIPASE [2]: 12.33 u/L
- PHOSPHORUS [2]: 11.42 mg/dL
- POTASSIUM [2]: 6.25 MEQ/L
- SODIUM [2]: 143.7 MEQ/L
- TOTAL BILIRUBIN [2]: 0.68 mg/dL
- TOTAL PROTEIN [2]: 6.2 G/DL
- URIC ACID [2]: 1.3 mg/dL
- ABSOLUTE EOSINOPHIL [3]: 30.33 CELLS/uL
- ABSOLUTE LYMPHOCYTE [3]: 15144 CELLS/uL
- ABSOLUTE MONOCYTE [3]: 266 CELLS/uL
- ABSOLUTE SEGMENTED NEUTROPHIL [3]: 893 CELLS/uL
- BASOPHIL [3]: 0%
- EOSINOPHIL [3]: 0.17%
- ERYTHROCYTE COUNT [3]: 5.34 x10E6/uL
- HEMATOCRIT [3]: 34.55%
- HEMOGLOBIN [3]: 13.67 G/DL
- LEUKOCYTE COUNT [3]: 16.33 x10E3/uL
- LYMPHOCYTE [3]: 92.33%
- MEAN CORPUSCULAR HEMOGLOBIN [3]: 25.58 pg
- MEAN CORPUSCULAR HEMOGLOBIN CONCENTRATION [3]: 39.58 G/DL
- MEAN CORPUSCULAR VOLUME [3]: 64.72 fL
- MONOCYTE [3]: 1.67%
- NEUTROPHIL [3]: 5.83%
- NUCLEATED RED BLOOD CELLS [3]: 0.33 /100WBC
- PLATELET COUNT [3]: 1050.67 x10E3/uL
- ALANINE AMINOTRANSFERASE [3]: 55.83 u/L
- ALKALINE PHOSPHATASE [3]: 484.5 u/L
- ASPARTATE AMINOTRANSFERASE [3]: 65.17 u/L
- BLOOD UREA NITROGEN [3]: 10.67 mg/dL
- CARBON DIOXIDE [3]: 28 mmol/L
- CHLORIDE [3]: 100 MEQ/L
- CHOLESTEROL [3]: 71 mg/dL
- CREATINE PHOSPHOKINASE [3]: 320.67 u/L
- CREATININE [3]: 0.21 mg/dL
- GLUCOSE [3]: 140.83 mg/dL
- LACTATE DEHYDROGENASE [3]: 120.67 u/L
- LIPASE [3]: 9.67 u/L
- PHOSPHORUS [3]: 10.38 mg/dL
- POTASSIUM [3]: 5.59 MEQ/L
- SODIUM [3]: 146.73 MEQ/L
- TOTAL BILIRUBIN [3]: 0.25 mg/dL
- TOTAL PROTEIN [3]: 5.97 G/DL
- URIC ACID [3]: 1.07 mg/dL
